What all share (assay type): cell-based, human
In experiment [1] the test system is HepG2 (hepatocellular carcinoma). In words: Cell viability in solid cancer cells, WST assay, HepG2. The settings on record: HepG2, 1 to 30 μM, 6 hours. An excerpt:
(§1) To confirm the possibility of use as a therapeutic agent for solid cancer, A549 cell line obtained from a […] with lung carcinoma, Hela cell line obtained from a person with cervix adenocarcinoma, HepG2 cell line obtained from a child with hepatocellular carcinoma, MCF7 cell line obtained from a person with breast adenocarcinoma, and Beas-2B cell line obtained from a normal lung for comparison with solid cancer cell line were used.
(§2) The A549 (lung carcinoma), Hela (cervix adenocarcinoma), HepG2 (hepatocellular carcinoma), MCF7 (breast carcinoma), and Beas-2B (normal lung) cell lines were used in DMEM medium containing 10% FBS, subcultured once every 2 days in an incubator under conditions of 37° C. and 5% CO2 and used in the experiment.
(§3) A549 (lung carcinoma), Hela (cervix adenocarcinoma), HepG2 (hepatocellular carcinoma), MCF7 (breast carcinoma), and Beas-2B (normal lung) cells cultured in Example 6-1 were inoculated into a 96-well plated at 1×10^4 cells/well, and then for the stabilization of cells, the cells were cultured in an incubator at 37° C. and 5% CO2 for 16 hours or more. Subsequently, among the compounds synthesized in Example 1, the compounds 1, 10 and 72 were treated at a concentration of 1 to 30 μM, and then cultured for 6 hours. At this time, DMSO and β-lapachone were used as the control group. After 4 hours of incubation, 10 μl of WST solution was added to each cell, the reaction was carried out for 2 hours, and the absorbance was measured at 450 nm with a multi-scan machine. The cell viabilities of A549 (lung carcinoma), Hela (cervix adenocarcinoma), HepG2 (hepatocellular carcinoma) and MCF7 (breast carcinoma) cells are shown in Table 4 and FIG. 6 below.

The test system of the next experiment is A549 (lung carcinoma). In words: Cell viability in solid cancer cells, WST assay, A549. As to conditions: A549, 1 to 30 μM, 6 hours.
Excerpt: as §1, §2, §3

Experiment [2] concerns Hela (cervix adenocarcinoma). In words: Cell viability in solid cancer cells, WST assay, Hela. As to conditions: 1 to 30 μM, 6 hours.
Excerpt: as §1, §2, §3

In another experiment the test system is MCF7 (breast carcinoma). In words: Cell viability in solid cancer cells, WST assay, MCF7. As to conditions: MCF7, 1 to 30 μM, 6 hours.
Excerpt: as §1, §2, §3

Experiment [3] concerns A549, Hela, HepG2, MCF7 and Beas-2B cells. Put plainly: Cell viability WST assay, all solid cancer and normal lung lines taken together. The settings on record: 6 hours.
Excerpt: as §1, §2, §3

In another experiment the test system is KG1α cells. In words: Cell viability in KG1α cells, WST assay. As to conditions: 0.1 to 3 μM. An excerpt:
The constructed cell lines were also diverse. Thus, in order to confirm the applicability to a wide range of therapeutic agents that are not therapeutic agents for specific types of acute leukemia, in the present invention, KG1α cells constructed by selecting only cells having a stem cell phenotype from KG1 cells, which are cell lines obtained from a person with acute myelogenous leukemia, were used. HL60 cells, which are cell lines obtained from a person with acute promyelocytic leukemia, and U937 cells, which are cell lines obtained from a person with histiocytic lymphoma, were used.
KG1α and HL60 cells were cultured in IMDM medium containing 20% FBS (fetal bovine serum), and U937 cells were cultured in RPMI 1640 medium containing 10% FBS. All cells were cultured in an incubator under conditions of 37° C. and 5% CO2, and subcultured once every 2 or 3 days and used in the experiment.
KG1α cells are cells resistant to idarubicin and cytarabine, which are the therapeutic agents for acute myeloid leukemia, and are refractory AML cells. KG1α cells cultured in Example 2-1 were cultured into a 96-well plate at 1×10^5 cells/well, and then cultured in an incubator at 37° C. and 5% CO2 for 16 hours or more for the stabilization of cells. […] At this time, DMSO was used as a control group. After 24 hours, each cell was treated with 10 μl of WST solution, reacted for 2 hours, and then absorbance was measured at 450 nm with a multi-scan machine, and the cell viability of KG1α cells was confirmed as shown in Table 4 below.

In a further experiment the test system is K562 cells. In words: Cell viability in chronic leukemia K562 cells, WST assay. As to conditions: 0.1 to 5 μM. The procedure: K562 cells obtained from a person with chronic myeloid leukemia were cultured in an incubator under conditions of 37° C. and 5% CO2 using RPMI medium containing 10% FBS (fetal bovine serum), and subcultured once every two days and used in the experiment.
The K562 cells cultured in Example 4-1 were inoculated into a 96-well plate at 1×10^5 cells/well, and then, for the stabilization of cells, the cells were cultured in an incubator at 37° C. and 5% CO2 for 16 hours or more. Subsequently, among the compounds synthesized in Example 1, the compounds 1, 10, and 72 and 192 were treated at a concentration of 0.1 to 5 μM and then cultured for 4 hours. At this time, DMSO was used as a control group. After 4 hours of incubation, 10 μl of WST solution was added to each cell and then reacted for 2 hours.

By IC50 is commonly meant the concentration that gives 50% inhibition. Lower therefore signals greater potency. For the compound `CC1(C)CCC2=C(O1)c1ccccc1C(=O)C2=O` [beta-rapacon, β-lapachone, reference compound], the IC50 stood at 12.3 µM in experiment [1], 5 µM in the experiment on A549 (lung carcinoma), 4.8 µM in experiment [2] and 13.2 µM in the experiment with MCF7 (breast carcinoma).

As for `CCc1nc2c([nH]1)C(=O)C(=O)c1ccccc1-2` [compound 10], the “killing effect compared with β-lapachone” value in experiment [3] was “killing effect similar to β-lapachone”. For the same compound, the half-maximal inhibitory concentration (IC50) in experiment [1] (Homo sapiens) was 12.1 µM; with A549 (lung carcinoma) (Homo sapiens) it was 5.5 µM; in experiment [2] (Homo sapiens), 7.7 µM; with KG1α cells (24 hours) it was 0.5 µM; in the experiment on KG1α cells (Homo sapiens, KG-1, 24 h), 0.5 to 1 µM; with K562 cells (Homo sapiens, K562, 4 h), 0.9 µM. This compound also showed an IC50 in the experiment with MCF7 (breast carcinoma) (Homo sapiens) of 14.1 µM.

Consider `O=C1C(=O)c2[nH]c(C3CCCO3)nc2-c2ccccc21` (stereo not drawn) [compound 72], for which the “killing effect compared with β-lapachone” value in experiment [3] is recorded as “killing effect similar to β-lapachone”. Moreover, the half-inhibitory concentration (IC50) was 12.6 µM in experiment [1] (Homo sapiens); 6.5 µM in the experiment on A549 (lung carcinoma) (Homo sapiens); 9.1 µM in experiment [2] (Homo sapiens); 0.7 µM in the experiment on KG1α cells (24 hours); 0.5 to 1 µM in the experiment with KG1α cells (Homo sapiens, KG-1, 24 h); 1.4 µM in the experiment on K562 cells (4 hours). The 50% inhibitory concentration (IC50) in the experiment on K562 cells (Homo sapiens, K562, 4 h) is 1 to 2 µM; in the experiment on MCF7 (breast carcinoma) (Homo sapiens) it was 12.5 µM.

Source of the values: patent publication US11684610B2, “Pharmaceutical composition including 1,2-naphthoquinone derivative compound for prevention or treatment of solid cancers or blood cancers” (YUNGJIN PHARM. CO., LTD., priority 2018, dated 2023).
